In patent publication US12398154B2, “Azaquinazoline pan-KRas inhibitors” (Mirati Therapeutics, Inc., priority 2020, dated 2025):
pIC50: −log10 of the molar value.

Key:
pERK in PSN1 cells = assay: Inhibition of KRas phosphorylation of ERK (Cisbio HTRF pERK assay); settings: Homo sapiens, PSN1, 3 h, read-out: Inhibition (HTRF IC50) of KRas-mediated Phosphorylation of ERK, PSN1
KRas G12C = KRas G12C (Homo sapiens, UniProt P01116, G12C); assay: biochemical;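 also: binding to KRas assessed by TR-FRET displacement after one hour incubation at room temperature, potency fitted from percent-of-control values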
Chain of KRas G12C (P01116 1-169 isoform P01116-2 G12C): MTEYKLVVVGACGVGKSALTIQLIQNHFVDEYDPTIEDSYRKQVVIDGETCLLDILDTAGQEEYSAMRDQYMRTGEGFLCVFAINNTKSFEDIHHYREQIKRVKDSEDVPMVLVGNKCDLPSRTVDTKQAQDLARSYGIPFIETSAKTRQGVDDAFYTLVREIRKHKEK
Description: (§2) The ability of a compound to bind to KRas was measured using a TR-FRET displacement assay. […] After a 60-minute incubation at room temperature, the reaction was measured using a BMG LABTECH CLARIO star Plus via TR-FRET. […] The POC values were fit to a 4-parameter IC50 equation and the IC50 value reported.

pERK in H727 cells = assay: Inhibition of KRas phosphorylation of ERK (Cisbio HTRF pERK assay); settings: Homo sapiens, NCI-H727, read-out: Inhibition (HTRF IC50) of KRas-mediated Phosphorylation of ERK, H727
KRas G12A = KRas G12A (Homo sapiens, UniProt P01116, G12A); assay: biochemical;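 also: binding to KRas measured by TR-FRET displacement after one hour at room temperature, IC50 from a four-parameter fit of percent-of-control values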
Chain of KRas G12A (P01116 1-169 isoform P01116-2 G12A): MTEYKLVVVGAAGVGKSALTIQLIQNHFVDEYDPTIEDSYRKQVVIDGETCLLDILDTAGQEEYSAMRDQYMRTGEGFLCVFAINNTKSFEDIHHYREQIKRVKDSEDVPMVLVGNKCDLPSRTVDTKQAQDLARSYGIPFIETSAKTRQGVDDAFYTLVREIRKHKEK
Description: as §2

KRas G13D = target: T1, KRas G13D (Homo sapiens, UniProt P01116, G13D); assay: KRas binding assay (TR-FRET displacement);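 also: One-hour room temperature incubation before TR-FRET reading, IC50 from a four-parameter curve fit to percent-of-control data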
T1 construct: Biotinylated KRas (corresponding to amino acids 1-169, produced at Accelegan Inc.); biotin (biotinylated); purchased Accelegan Inc
T1 sequence (P01116 1-169 isoform P01116-2 G13D): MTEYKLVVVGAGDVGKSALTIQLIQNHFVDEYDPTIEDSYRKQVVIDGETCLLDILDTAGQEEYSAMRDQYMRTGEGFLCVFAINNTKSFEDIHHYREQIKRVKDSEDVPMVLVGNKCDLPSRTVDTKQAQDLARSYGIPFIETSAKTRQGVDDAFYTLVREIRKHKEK
Description: as §2

pERK in H460 cells = assay: Inhibition of KRas phosphorylation of ERK (Cisbio HTRF pERK assay); settings: Homo sapiens, NCI-H460, read-out: Inhibition (HTRF IC50) of KRas-mediated Phosphorylation of ERK, H460
KRas WT = KRas WT (Homo sapiens, UniProt P01116); assay: biochemical;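 also: binding to KRas read as TR-FRET displacement after a one-hour room-temperature incubation, IC50 derived from percent-of-control values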
Chain of KRas WT (P01116 1-169 isoform P01116-2): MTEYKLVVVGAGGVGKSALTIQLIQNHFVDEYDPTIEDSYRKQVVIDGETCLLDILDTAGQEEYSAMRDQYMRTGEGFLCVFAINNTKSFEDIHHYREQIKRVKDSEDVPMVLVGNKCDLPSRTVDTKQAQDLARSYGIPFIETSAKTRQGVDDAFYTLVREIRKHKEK
Description: as §2

KRas G12V = KRas G12V (Homo sapiens, UniProt P01116, G12V); assay: biochemical;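 also: KRas binding measured by TR-FRET displacement at room temperature, IC50 fitted from percent of control values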
Chain of KRas G12V (P01116 1-169 isoform P01116-2 G12V): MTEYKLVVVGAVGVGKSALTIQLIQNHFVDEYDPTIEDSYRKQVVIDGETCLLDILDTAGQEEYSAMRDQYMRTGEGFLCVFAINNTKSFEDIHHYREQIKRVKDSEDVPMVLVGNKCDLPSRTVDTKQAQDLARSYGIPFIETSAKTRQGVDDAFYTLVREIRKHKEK
Description: as §2

pERK in ASPC1 cells = assay: Inhibition of KRas phosphorylation of ERK (Cisbio HTRF pERK assay); settings: Homo sapiens, ASPC1, read-out: Inhibition (HTRF IC50) of KRas-mediated Phosphorylation of ERK, AsPC-1
pERK in HCT116 cells = assay: as above; settings: Homo sapiens, HCT-116, read-out: Inhibition (HTRF IC50) of KRas-mediated Phosphorylation of ERK, HCT116
pERK in A549 cells = assay: as above; settings: Homo sapiens, A549, read-out: Inhibition (HTRF IC50) of KRas-mediated Phosphorylation of ERK, A549
[1] = tested on: phospho-ERK in NCI-H358 (G12C) cells; assay: Inhibition of KRas-mediated phosphorylation of ERK (in-cell western); type: cell-based; settings: Homo sapiens, 3 hours compound, phospho-ERK normalized to GAPDH
In short: (§1)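 Cells treated 3 h with compounds (0.5% DMSO), fixed in formaldehyde and methanol-permeabilized. In-cell western for phospho-ERK (Thr202/Tyr204) normalized to GAPDH, as % of DMSO control; IC50 by 4-parameter fit.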

[2] = tested on: phospho-ERK in HCT116 (G13D) cells; assay: as above; type: cell-based; settings: Homo sapiens, HCT-116, 3 hours compound, phospho-ERK normalized to GAPDH
In short: as §1

[3] = tested on: phospho-ERK in A549 (G12S) cells; assay: as above; type: cell-based; settings: Homo sapiens, 3 hours compound, phospho-ERK normalized to GAPDH
In short: as §1

[4] = tested on: phospho-ERK in AsPC-1 (G12D) cells; assay: as above; type: cell-based; settings: Homo sapiens, ASPC1, 3 h, 3 hours compound, phospho-ERK normalized to GAPDH
In short: as §1

[5] = tested on: phospho-ERK in MKN1 (WTdep) cells; assay: as above; type: cell-based; settings: Homo sapiens, MKN-1, 3 hours compound, phospho-ERK normalized to GAPDH
In short: as §1

[6] = tested on: phospho-ERK in PSN-1 (G12R) cells; assay: as above; type: cell-based; settings: Homo sapiens, PSN1, 3 hours compound, phospho-ERK normalized to GAPDH
In short: as §1

[7] = tested on: phospho-ERK in NCI-H727 (G12V) cells; assay: as above; type: cell-based; settings: Homo sapiens, NCI-H727, 3 h, 3 hours compound, phospho-ERK normalized to GAPDH
In short: as §1

[8] = tested on: phospho-ERK in NCI-H460 (Q61H) cells; assay: as above; type: cell-based; settings: Homo sapiens, NCI-H460, 3 h, 3 hours compound, phospho-ERK normalized to GAPDH
In short: as §1

KRas G12R = KRas G12R (Homo sapiens, UniProt P01116, G12R); assay: biochemical;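 also: TR-FRET displacement assay of compound binding to KRas, read after one hour at room temperature, potency from a four-parameter fit of percent-of-control values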
Chain of KRas G12R (P01116 1-169 isoform P01116-2 G12R): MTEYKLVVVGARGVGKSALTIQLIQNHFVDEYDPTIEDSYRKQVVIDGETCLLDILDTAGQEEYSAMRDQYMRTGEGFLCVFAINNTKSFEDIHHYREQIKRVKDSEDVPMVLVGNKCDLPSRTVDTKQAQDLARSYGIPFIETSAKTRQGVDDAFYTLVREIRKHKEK
Description: as §2

KRas G12D = KRas G12D (Homo sapiens, UniProt P01116, G12D); assay: biochemical;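 also: TR-FRET displacement binding assay on KRas, read after a one-hour incubation at room temperature, IC50 fitted from percent-of-control values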
Chain of KRas G12D (P01116 1-169 isoform P01116-2 G12D): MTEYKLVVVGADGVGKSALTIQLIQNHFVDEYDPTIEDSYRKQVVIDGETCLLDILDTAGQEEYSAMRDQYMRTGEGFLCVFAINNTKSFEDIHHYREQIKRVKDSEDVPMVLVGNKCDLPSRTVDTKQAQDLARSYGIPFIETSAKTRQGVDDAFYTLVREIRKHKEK
Description: as §2

KRas Q61H = target: T2, KRas Q61H (Homo sapiens, UniProt P01116, Q61H); assay: KRas binding assay (TR-FRET displacement);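 also: TR-FRET signal read after one hour at room temperature, IC50 derived by four-parameter fitting of percent-of-control values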
T2 construct: Biotinylated KRas (corresponding to amino acids 1-169, produced at Accelegan Inc.); biotin (biotinylated); purchased Accelegan Inc
T2 sequence (P01116 1-169 isoform P01116-2 Q61H): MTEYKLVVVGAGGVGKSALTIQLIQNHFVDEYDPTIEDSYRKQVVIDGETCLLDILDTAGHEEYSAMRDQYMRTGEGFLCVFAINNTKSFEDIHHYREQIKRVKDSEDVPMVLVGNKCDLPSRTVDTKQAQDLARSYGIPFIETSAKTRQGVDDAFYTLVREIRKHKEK
Description: as §2

KRas G12S = KRas G12S (Homo sapiens, UniProt P01116, G12S); assay: biochemical;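 also: TR-FRET displacement binding to KRas, read after one hour incubation at room temperature, IC50 from four-parameter fit of percent of control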
Chain of KRas G12S (P01116 1-169 isoform P01116-2 G12S): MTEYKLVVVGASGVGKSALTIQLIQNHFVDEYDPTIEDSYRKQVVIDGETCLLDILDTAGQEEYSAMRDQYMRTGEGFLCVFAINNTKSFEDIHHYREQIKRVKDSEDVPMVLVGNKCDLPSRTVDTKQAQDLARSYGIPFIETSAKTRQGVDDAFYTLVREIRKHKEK
Description: as §2

pERK in MKN1 cells = assay: Inhibition of KRas phosphorylation of ERK (Cisbio HTRF pERK assay); settings: Homo sapiens, MKN-1, 3 h, read-out: Inhibition (HTRF IC50) of KRas-mediated Phosphorylation of ERK, MKN1

C#Cc1c(F)ccc2cc(O)cc(-c3ncc4c(N5CCC[C@@](C)(O)C5)nc(OC[C@@]56CCCN5C[C@H](F)C6)nc4c3F)c12 [Example 13]
pIC50 (pERK in PSN1 cells): 5.96
pIC50 (KRas G12C): ≥ 8.70
pIC50 (pERK in H727 cells): 7.89
pIC50 (KRas G12A): ≥ 8.70
IC50 (KRas G13D): ≤ 2 nM
pIC50 (pERK in H460 cells): 7.57
pIC50 (KRas WT): ≥ 8.70
pIC50 (KRas G12V): ≥ 8.70
pIC50 (pERK in ASPC1 cells): 8.40
pIC50 (pERK in HCT116 cells): 7.48
pIC50 (pERK in A549 cells): 7.37
IC50 [1]: 11 nM
IC50 [2]: 42 nM
IC50 [3]: 140 nM
IC50 [4]: 18 nM
IC50 [5]: 10 nM
IC50 [6]: 773 nM
IC50 [7]: 44 nM
IC50 [8]: 13 nM
pIC50 (KRas G12R): ≥ 8.70
pIC50 (KRas G12D): ≥ 8.70
IC50 (KRas Q61H): ≤ 2 nM
pIC50 (KRas G12S): ≥ 8.70
pIC50 (pERK in MKN1 cells): 8.30

CCc1c(F)ccc2cc(O)cc(-c3ncc4c(N5CCC[C@@](C)(O)C5)nc(OC[C@@H]5CCCN5C)nc4c3F)c12 [Example 28, (3R)-1-[7-(8-ethyl-7-fluoro-3-hydroxy-1-naphthyl)-8-fluoro-2-[[(2S)-1-methylpyrrolidin-2-yl]methoxy]pyrido[4,3-d]pyrimidin-4-yl]-3-methyl-piperidin-3-ol]
pIC50 (pERK in PSN1 cells): 5.14
pIC50 (KRas G12C): ≥ 8.70
pIC50 (pERK in H727 cells): 6.80
pIC50 (KRas G12A): ≥ 8.70
IC50 (KRas G13D): 3 nM
pIC50 (pERK in H460 cells): 7.00
pIC50 (KRas WT): 8.52
pIC50 (KRas G12V): ≥ 8.70
pIC50 (pERK in ASPC1 cells): 7.70
pIC50 (pERK in HCT116 cells): 6.81
pIC50 (pERK in A549 cells): 6.81
IC50 [1]: 60 nM
IC50 [2]: 153 nM
IC50 [3]: 523 nM
IC50 [4]: 78 nM
IC50 [5]: 24 nM
IC50 [6]: ≥ 10000 nM
IC50 [7]: 308 nM
IC50 [8]: 54 nM
pIC50 (KRas G12R): 8.52
pIC50 (KRas G12D): 8.52
IC50 (KRas Q61H): 3 nM
pIC50 (KRas G12S): ≥ 8.70
pIC50 (pERK in MKN1 cells): 7.68

CCc1c(F)ccc2cc(O)cc(-c3ncc4c(N5CCCC6(CC(=O)N6)C5)nc(OC[C@@]56CCCN5C[C@H](F)C6)nc4c3F)c12 (some centres unmarked) [Example 57]
pIC50 (pERK in H727 cells): 7.26
IC50 (KRas G13D): 3 nM
pIC50 (pERK in H460 cells): 6.92
pIC50 (KRas G12V): ≥ 8.70
pIC50 (pERK in ASPC1 cells): 7.49
pIC50 (pERK in HCT116 cells): 5.70
pIC50 (pERK in A549 cells): 6.76
IC50 [1]: 50 nM
IC50 [2]: 1080 nM
IC50 [3]: 668 nM
IC50 [4]: 82 nM
IC50 [5]: 22 nM
IC50 [6]: 4140 nM
IC50 [7]: 115 nM
IC50 [8]: 119 nM
pIC50 (KRas G12R): ≥ 8.70
pIC50 (KRas G12D): ≥ 8.70
IC50 (KRas Q61H): ≤ 2 nM

CCc1c(F)ccc2cc(O)cc(-c3ncc4c(N5CCOCC(C)(O)C5)nc(OC[C@@]56CCCN5C[C@H](F)C6)nc4c3F)c12 (some centres unmarked) [Example 63]
pIC50 (pERK in H727 cells): 7.55
pIC50 (pERK in H460 cells): 7.68
pIC50 (pERK in ASPC1 cells): 8.40
pIC50 (pERK in HCT116 cells): 7.20
pIC50 (pERK in A549 cells): 7.72
IC50 [1]: 27 nM
IC50 [2]: 44 nM
IC50 [3]: 139 nM
IC50 [4]: 15 nM
IC50 [5]: 5 nM
IC50 [6]: 1040 nM
IC50 [7]: 56 nM
IC50 [8]: 38 nM

CCc1c(F)ccc2cc(O)cc(-c3ncc4c(N5CCCC6(CNC6=O)C5)nc(OC[C@@]56CCCN5C[C@H](F)C6)nc4c3F)c12 (some centres unmarked) [Example 146]
pIC50 (pERK in H727 cells): 6.40
pIC50 (pERK in H460 cells): 6.49
pIC50 (KRas G12V): ≥ 8.70
pIC50 (pERK in ASPC1 cells): 7.04
pIC50 (pERK in HCT116 cells): 6.22
IC50 [1]: 15 nM
IC50 [2]: 1000 nM
IC50 [3]: 1060 nM
IC50 [4]: 22 nM
IC50 [5]: 22 nM
IC50 [6]: 2530 nM
IC50 [7]: ≥ 10000 nM
IC50 [8]: 204 nM
pIC50 (KRas G12R): 8.52
pIC50 (KRas G12D): ≥ 8.70

C#Cc1c(F)ccc2cc(O)cc(-c3ncc4c(N5CCCC6(CC(=O)N6)C5)nc(OC[C@@]56CCCN5C[C@H](F)C6)nc4c3F)c12 (some centres unmarked) [Example 148]
pIC50 (pERK in H727 cells): 6.96
pIC50 (pERK in H460 cells): 6.88
pIC50 (KRas G12V): ≥ 8.70
pIC50 (pERK in ASPC1 cells): 7.23
pIC50 (pERK in HCT116 cells): 5.66
IC50 [1]: 15 nM
IC50 [2]: ≥ 10000 nM
IC50 [3]: 550 nM
IC50 [4]: 105 nM
IC50 [5]: 76 nM
IC50 [6]: 3780 nM
IC50 [7]: 260 nM
IC50 [8]: 68 nM
pIC50 (KRas G12R): ≥ 8.70
pIC50 (KRas G12D): 8.52

C#Cc1c(F)ccc2cc(O)cc(-c3ncc4c(N5CCOCC(C)(O)C5)nc(OC[C@@]56CCCN5C[C@H](F)C6)nc4c3F)c12 (some centres unmarked) [Example 149]
pIC50 (pERK in H727 cells): 6.95
pIC50 (pERK in H460 cells): 6.74
pIC50 (KRas G12V): ≥ 8.70
pIC50 (pERK in ASPC1 cells): 7.60
pIC50 (pERK in HCT116 cells): 6.56
pIC50 (pERK in A549 cells): 6.54
IC50 [1]: 10 nM
IC50 [2]: 292 nM
IC50 [3]: 83 nM
IC50 [4]: 9 nM
IC50 [5]: 16 nM
IC50 [6]: 1760 nM
IC50 [7]: 206 nM
IC50 [8]: 71 nM
pIC50 (KRas G12R): 8.52
pIC50 (KRas G12D): 8.40

C#Cc1c(F)ccc2cc(O)cc(-c3ncc4c(NCc5c[nH]c6ncccc56)nc(OC[C@@]56CCCN5C[C@H](F)C6)nc4c3F)c12 [Example 150, 4-(4-(((1H-pyrrolo[2,3-b]pyridin-3-yl)methyl)amino)-8-fluoro-2-(((2R,7aS)-2-fluorohexahydro-1H-pyrrolizin-7a-yl)methoxy)pyrido[4,3-d]pyrimidin-7-yl)-5-ethynyl-6-fluoronaphthalen-2-ol]
pIC50 (pERK in H727 cells): 7.92
pIC50 (pERK in H460 cells): 6.78
pIC50 (KRas G12V): ≥ 8.70
pIC50 (pERK in ASPC1 cells): 7.18
pIC50 (pERK in HCT116 cells): 6.94
IC50 [1]: 4 nM
IC50 [2]: 996 nM
IC50 [3]: 45 nM
IC50 [4]: 435 nM
IC50 [5]: 13 nM
IC50 [6]: ≥ 10000 nM
IC50 [7]: 626 nM
IC50 [8]: 362 nM
pIC50 (KRas G12R): ≥ 8.70
pIC50 (KRas G12D): ≥ 8.70

CCc1c(F)ccc2cc(O)cc(-c3ncc4c(NCc5ccc6nccn6c5)nc(OC[C@@]56CCCN5C[C@H](F)C6)nc4c3F)c12 [Example 156, 5-ethyl-6-fluoro-4-(8-fluoro-2-(((2R,7aS)-2-fluorohexahydro-1H-pyrrolizin-7a-yl)methoxy)-4-((imidazo[1,2-a]pyridin-6-ylmethyl)amino)pyrido[4,3-d]pyrimidin-7-yl)naphthalen-2-ol]
pIC50 (pERK in H727 cells): 7.14
pIC50 (pERK in H460 cells): 6.84
pIC50 (KRas G12V): ≥ 8.70
pIC50 (pERK in ASPC1 cells): 6.90
pIC50 (pERK in HCT116 cells): 6.46
IC50 [1]: 10 nM
IC50 [2]: 323 nM
IC50 [3]: 33 nM
IC50 [4]: 335 nM
IC50 [5]: 14 nM
IC50 [6]: ≥ 10000 nM
IC50 [7]: 189 nM
IC50 [8]: 141 nM
pIC50 (KRas G12R): ≥ 8.70
pIC50 (KRas G12D): ≥ 8.70
